# Experimental data as given in US20230085307A1, “PYRIDAZINONE COMPOUND AND HERBICIDE” (NISSAN CHEMICAL CORPORATION, priority 2019, published 2023).
# Tests used:
# velvetleaf = experiment: Test Example 4: herbicidal effect by soil treatment (Table 19, symbol M); assay type: in vivo, velvetleaf (Abutilon theophrasti); details: amount of applied herbicide 320 g/ha
# Outline: (§1)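 Emulsion of test compound, water-diluted to predetermined amount, sprayed on soil after sowing (seed depth ~1.5 cm, sterilized diluvial soil). Greenhouse, 25–30° C. Effect graded at three weeks post-spray.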
# late watergrass = experiment: Test Example 2: herbicidal activity, application during weed generation under submerged conditions (Table 17, symbol A); assay type: in vivo, late watergrass (Echinochloa oryzicola); details: AAH 320 g/ha; application during weed generation, submerged conditions
# Outline: (§2)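 Steps: fill Wagner pots with alluvial soil; add water to give 4 cm depth; sow the species mixed; grow under glass at 25–30° C.; at 1–2 leaves apply water-diluted emulsion formulation to the water surface at a fixed herbicide amount; score after 3 weeks.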
# barnyard grass [1] = experiment: Test Example 5: herbicidal effect by foliage application, plastic box (Table 20, symbol H); assay type: in vivo, barnyard grass (Echinochloa crus-galli); details: foliage application, 320 g/ha, three weeks after application
# Outline: (§3)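 Post-emergence foliar test in sterilized diluvial soil. Compound applied as water-diluted emulsion at a predetermined rate to 14-day-old plants; evaluation at three weeks.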
# blackgrass [2] = experiment: Test Example 5: herbicidal effect by foliage application, plastic box (Table 20, symbol J); assay type: in vivo, blackgrass (Alopecurus myosuroides); details: foliage application, 320 g/ha, three weeks after application
# Outline: as §3
# chickweed = experiment: Test Example 5: herbicidal effect by foliage application, plastic box (Table 20, symbol P); assay type: in vivo, common chickweed (Stellaria media); details: foliage application, 320 g/ha, three weeks after application
# Outline: as §3
# southern crabgrass [3] = experiment: Test Example 5: herbicidal effect by foliage application, plastic box (Table 20, symbol F); assay type: in vivo, southern crabgrass (Digitaria ciliaris); details: foliage application, 320 g/ha, three weeks after application
# Outline: as §3
# oval-leafed pondweed [4] = experiment: Test Example 1: herbicidal activity, application before weed generation under submerged conditions (Table 16, symbol C); assay type: in vivo, oval-leafed pondweed (Monochoria vaginalis); details: amount of applied herbicide 320 g/ha
# Outline: (§4)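 Submerged Wagner pots (alluvial soil, 4 cm water) sown with weed seeds and planted with 2.5-leaf rice seedlings; emulsifiable concentrate diluted in water applied to water surface on sowing day. Held in greenhouse at 25-30 °C; injury scored 0-5 by herbicidal rate after three weeks.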
# false cleavers = experiment: Test Example 4: herbicidal effect by soil treatment (Table 19, symbol Q); assay type: in vivo, false cleavers (Galium spurium); details: amount of applied herbicide 320 g/ha
# Outline: as §1
# rice flat sedge = experiment: Test Example 3: herbicidal effect by foliage application, Wagner pot (Table 18, symbol E); assay type: in vivo, rice flat sedge (Cyperus iria); details: amount of applied herbicide 320 g/ha
# Outline: (§5)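 Plants were sown in alluvial soil held under 0.1–0.5 cm standing water and grown 14 days in a greenhouse at 25–30 °C. An emulsifiable formulation, water-diluted to the set dose, was then sprayed onto the foliage, and effects were scored three weeks later using previously defined criteria.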
# blackgrass [5] = experiment: Test Example 4: herbicidal effect by soil treatment (Table 19, symbol J); assay type: in vivo, blackgrass (Alopecurus myosuroides); details: amount of applied herbicide 320 g/ha
# Outline: as §1
# southern crabgrass [6] = experiment: Test Example 4: herbicidal effect by soil treatment (Table 19, symbol F); assay type: in vivo, southern crabgrass (Digitaria ciliaris); details: amount of applied herbicide 320 g/ha
# Outline: as §1
# oval-leafed pondweed [7] = experiment: Test Example 2: herbicidal activity, application during weed generation under submerged conditions (Table 17, symbol C); assay type: in vivo, oval-leafed pondweed (Monochoria vaginalis); details: AAH 320 g/ha; application during weed generation, submerged conditions
# Outline: as §2
# Japanese bulrush = experiment: Test Example 1: herbicidal activity, application before weed generation under submerged conditions (Table 16, symbol B); assay type: in vivo, Japanese bulrush (Schoenoplectus juncoides); details: amount of applied herbicide 320 g/ha
# Outline: as §4
# persian speedwell = experiment: Test Example 4: herbicidal effect by soil treatment (Table 19, symbol R); assay type: in vivo, Persian speedwell (Veronica persica); details: amount of applied herbicide 320 g/ha
# Outline: as §1
# barnyard grass [8] = experiment: Test Example 3: herbicidal effect by foliage application, Wagner pot (Table 18, symbol H); assay type: in vivo, barnyard grass (Echinochloa crus-galli); details: amount of applied herbicide 320 g/ha
# Outline: as §5
# redroot pigweed = experiment: Test Example 4: herbicidal effect by soil treatment (Table 19, symbol N); assay type: in vivo, redroot pigweed (Amaranthus retroflexus); details: amount of applied herbicide 320 g/ha
# Outline: as §1
# Italian ryegrass = experiment: Test Example 5: herbicidal effect by foliage application, plastic box (Table 20, symbol K); assay type: in vivo, Italian ryegrass (Lolium multiflorum); details: foliage application, 320 g/ha, three weeks after application
# Outline: as §3
SMILES,"herbicidal effect rating, A: late watergrass (late watergrass)","Herbicidal effect, C: oval-leafed pondweed (oval-leafed pondweed [4])","herbicidal effect rating, C: oval-leafed pondweed (oval-leafed pondweed [7])","Herbicidal effect, B: Japanese bulrush (Japanese bulrush)","M: velvetleaf, herbicidal effect grade (velvetleaf)",herbicidal effect on barnyard grass (H) (barnyard grass [1]),herbicidal effect on blackgrass (J) (blackgrass [2]),herbicidal effect on southern crabgrass (F) (southern crabgrass [3]),"Q: false cleavers, herbicidal effect grade (false cleavers)","Herbicidal effect on E (rice flat sedge), foliage application (rice flat sedge)","J: blackgrass, herbicidal effect grade (blackgrass [5])","F: southern crabgrass, herbicidal effect grade (southern crabgrass [6])","R: persian speedwell, herbicidal effect grade (persian speedwell)","Herbicidal effect on H (barnyard grass), foliage application (barnyard grass [8])","N: redroot pigweed, herbicidal effect grade (redroot pigweed)",herbicidal effect on Italian ryegrass (K) (Italian ryegrass),also measured
CCCC(=O)Oc1c(C)nn(C)c(=O)c1-c1c(-c2ccc(F)cc2)sc2cc(F)ccc12 [3-002],3 (Herbicidal rate of 40% or more and less than 70%),4 (Herbicidal rate of 70% or more and less than 90%),4 (Herbicidal rate of 70% or more and less than 90%),3 (Herbicidal rate of 40% or more and less than 70%),–,–,–,–,–,–,–,–,–,–,–,–,"herbicidal effect, M: velvetleaf (velvetleaf): 0 (Herbicidal rate of 5% or less (almost no effect)); H: barnyard grass, herbicidal effect grade (barnyard grass [1]): 3 (Herbicidal rate of 40% or more and less than 70%); J: blackgrass, herbicidal effect grade (blackgrass [2]): 4 (Herbicidal rate of 70% or more and less than 90%); P: chickweed, herbicidal effect grade (chickweed): 5 (Herbicidal rate of 90% or more (almost completely withered)); F: southern crabgrass, herbicidal effect grade (southern crabgrass [3]): 4 (Herbicidal rate of 70% or more and less than 90%); herbicidal effect, Q: false cleavers (false cleavers): 1 (Herbicidal rate of 5% or more and less than 20%); herbicidal effect on E: rice flat sedge (rice flat sedge): 3 (Herbicidal rate of 40% or more and less than 70%); herbicidal effect, J: blackgrass (blackgrass [5]): 0 (Herbicidal rate of 5% or less (almost no effect)); herbicidal effect, F: southern crabgrass (southern crabgrass [6]): 0 (Herbicidal rate of 5% or less (almost no effect)); herbicidal effect, R: persian speedwell (persian speedwell): 5 (Herbicidal rate of 90% or more (almost completely withered)); herbicidal effect on H: barnyard grass (barnyard grass [8]): 5 (Herbicidal rate of 90% or more (almost completely withered)); herbicidal effect, N: redroot pigweed (redroot pigweed): 5 (Herbicidal rate of 90% or more (almost completely withered)); K: Italian ryegrass, herbicidal effect grade (Italian ryegrass): 4 (Herbicidal rate of 70% or more and less than 90%)"
Cc1nn(C)c(=O)c(-c2c(-c3ccc4c(c3)OCCO4)oc3ccccc23)c1O [8-002],3 (Herbicidal rate of 40% or more and less than 70%),4 (Herbicidal rate of 70% or more and less than 90%),5 (Herbicidal rate of 90% or more (almost completely withered)),5 (Herbicidal rate of 90% or more (almost completely withered)),0 (Herbicidal rate of 5% or less (almost no effect)),4 (Herbicidal rate of 70% or more and less than 90%),0 (Herbicidal rate of 5% or less (almost no effect)),1 (Herbicidal rate of 5% or more and less than 20%),0 (Herbicidal rate of 5% or less (almost no effect)),4 (Herbicidal rate of 70% or more and less than 90%),0 (Herbicidal rate of 5% or less (almost no effect)),3 (Herbicidal rate of 40% or more and less than 70%),5 (Herbicidal rate of 90% or more (almost completely withered)),4 (Herbicidal rate of 70% or more and less than 90%),2 (Herbicidal rate of 20% or more and less than 40%),4 (Herbicidal rate of 70% or more and less than 90%),–
Cc1nn(C)c(=O)c(-c2c(-c3ccc(OC(C)C)cc3)oc3ccc(F)cc23)c1O [9-025],4 (Herbicidal rate of 70% or more and less than 90%),5 (Herbicidal rate of 90% or more (almost completely withered)),4 (Herbicidal rate of 70% or more and less than 90%),5 (Herbicidal rate of 90% or more (almost completely withered)),3 (Herbicidal rate of 40% or more and less than 70%),4 (Herbicidal rate of 70% or more and less than 90%),4 (Herbicidal rate of 70% or more and less than 90%),5 (Herbicidal rate of 90% or more (almost completely withered)),0 (Herbicidal rate of 5% or less (almost no effect)),5 (Herbicidal rate of 90% or more (almost completely withered)),3 (Herbicidal rate of 40% or more and less than 70%),4 (Herbicidal rate of 70% or more and less than 90%),4 (Herbicidal rate of 70% or more and less than 90%),5 (Herbicidal rate of 90% or more (almost completely withered)),3 (Herbicidal rate of 40% or more and less than 70%),5 (Herbicidal rate of 90% or more (almost completely withered)),–
Cc1nn(C)c(=O)c(-c2c(-c3ccc(OCC(C)C)cc3)oc3ccc(F)cc23)c1O [9-027],4 (Herbicidal rate of 70% or more and less than 90%),5 (Herbicidal rate of 90% or more (almost completely withered)),4 (Herbicidal rate of 70% or more and less than 90%),5 (Herbicidal rate of 90% or more (almost completely withered)),5 (Herbicidal rate of 90% or more (almost completely withered)),5 (Herbicidal rate of 90% or more (almost completely withered)),5 (Herbicidal rate of 90% or more (almost completely withered)),5 (Herbicidal rate of 90% or more (almost completely withered)),0 (Herbicidal rate of 5% or less (almost no effect)),5 (Herbicidal rate of 90% or more (almost completely withered)),4 (Herbicidal rate of 70% or more and less than 90%),5 (Herbicidal rate of 90% or more (almost completely withered)),5 (Herbicidal rate of 90% or more (almost completely withered)),5 (Herbicidal rate of 90% or more (almost completely withered)),5 (Herbicidal rate of 90% or more (almost completely withered)),5 (Herbicidal rate of 90% or more (almost completely withered)),–
